Like-named read-outs stand apart in the source and are kept apart here. Marks after values point to notes of the source that are not given here. Blank lines part the entries; values can stand above or below the molecule they belong to.
Assays:
[1] = Plasma protein binding via rapid equilibrium dialysis (RED), 10% plasma; format: in vitro ADME, human; details: human, 10% pooled plasma (diluted 1:10), pH 7.4, RED, 10% plasma corrected for dilution; for fraction unbound at 6 h: 6 h dialysis; for fraction unbound at 24 h: presaturation of device and 24 h dialysis
Experimental: Pooled human plasma (n = 3–4 donors) was obtained by centrifugation of blood (collected by the Australian Red Cross Blood Service, Melbourne, Australia or the Volunteer Blood Donor Registry, Clinical Translation Centre, Walter & Eliza Hall Institute of Medical Research, Parkville, Australia), or sourcing pooled plasma directly from commercial sources (Innovative Research Inc, MI) and stored frozen at − 80 °C.
Plasma was diluted 1:10 with pH 7.4 phosphate buffer (prepared by mixing 0.1 M sodium dihydrogen phosphate and 0.1 M disodium hydrogen phosphate (both containing 0.04 M NaCl) to pH 7.4) and spiked with compound to achieve a total measured concentration of ~ 1000–3000 ng/mL. Diluted plasma was vortex mixed briefly and aliquots (n = 3–4) were transferred to RED (Thermo Fisher Scientific, Waltham, MA) units that were placed at 37 °C under ambient atmosphere on a plate shaker. […] At the end of the dialysis period, samples were removed from both the donor and dialysate chambers of the RED units. […] Fraction unbound values were calculated for each individual RED unit and the mean and SD calculated for n = 3–4 replicates.
Briefly, the RED device was exposed for two 30 min periods and one overnight period to fresh solutions of compound prepared in pH 7.4 buffer at approximately 10% of the total dialysis concentration. Following the preincubations, solutions were removed from the RED device and discarded. […] Samples were removed and analysed as described above.
For binding assessments using 10% plasma, the unbound fraction (fu) in neat plasma was calculated using the average values for Ctotal and Cunbound and Eq.

[2] = Binding in DMEM with 10% FCS via ultracentrifugation; format: in vitro ADME, calf; details: bovine, pH 7.4
Experimental: Dulbecco’s Modified Eagle’s Medium (DMEM) containing GlutaMAX-I was purchased from Invitrogen (Thermo Fisher Scientific) and stored at 4 °C. Medium was prepared by adding heat inactivated foetal calf serum (FCS, final 10% v/v), penicillin (final 100 U/mL), streptomycin (final 100 µg/mL) D-glucose (final 4.0 mg/mL) and sodium pyruvate (final 0.1 mg/mL).
An ultracentrifugation method adapted from a previous publication was initially used to assess plasma protein binding and binding in the other media. […] Additional ultracentrifuge tubes containing spiked matrix were maintained at 37 °C, 5% or 10% CO2 or normal atmosphere conditions, with aliquots being taken within 0.5 h of the start and at the end of ultracentrifugation to serve as controls for the assessment of stability and to obtain a measure of the total concentration (Ctotal). Following ultracentrifugation, the pH was checked and an aliquot of protein-free supernate was taken from each ultracentrifuge tube for determination of the unbound concentration (Cunbound).
Total matrix and protein free samples were analysed using a matrix matching approach whereby each sample was mixed in a 1:1 ratio with the opposite blank medium (i.e. blank total matrix or blank protein free buffer). For example, plasma samples were mixed with blank pH 7.4 buffer whereas plasma supernatant samples were mixed with blank plasma. Each of the sample sets were then assayed against a common calibration curve prepared in a 1:1 mixture of total matrix and protein free pH 7.4 buffer. […] The standard deviation for fu was calculated using the propagation of errors approach as described previously. The potential for compound degradation was assessed by comparing the average value for Ctotal at the start and end of the experiment.

[3] = Blood to plasma partitioning; format: in vitro ADME, human; details: 37 °C; for blood plasma ratio at 1000 ng/mL: human, whole blood, pH 7.4, human whole blood, read-out: B/P (whole blood to plasma partitioning ratio)
Experimental: Human whole blood was collected and supplied by the Volunteer Blood Donor Registry (Clinical Translation Centre, Walter & Eliza Hall Institute of Medical Research, Parkville, Australia) and used on the day of collection. The haematocrit (Hct) was determined by centrifugation (13,000×g for 3 min using Clemets® Microhaematocrit centrifuge and Safecap® Plain Self-sealing Mylar wrapped capillary tubes) to ensure it was between 0.40 and 0.48. An aliquot was centrifuged (Heraeus, Multifuge 3 S-R; 4500×g) for 10 min to obtain plasma required for matrix matching purposes as described below.
Two aliquots of the spiked whole blood were transferred to fresh microcentrifuge tubes and maintained at 37 °C/5% CO2 in a humidified incubator. The pH was confirmed to be 7.4 ± 0.1 at the start and end of the incubation. At each time point (30 min and 4 h), one whole blood tube was removed from the incubator and mixed by gentle inversion, after which four replicate blood samples were taken and matrix matched with an equal volume of blank plasma. The remainder of the blood sample was centrifuged (Eppendorf, Mini Spin plus; 6700×g) for 2 min for the collection of 4 replicate plasma samples which were similarly matrix matched with an equal volume of blank whole blood. The 1:1 mixtures of blood/plasma were mixed, snap frozen in dry ice and stored at − 80 °C until analysis by LC–MS (Additional file 1: Table S2) against calibration standards prepared in the same mixed matrix. Any further distribution of compound into RBCs at this stage was irrelevant as the cells were lysed during the sample preparation and the total concentration in the mixed matrix was measured for both the calibration standards and samples.
The apparent whole blood-to-plasma partitioning ratio (B/P) was calculated as the ratio of the average concentration in the blood sample to that in the plasma fraction of the same whole blood sample. A standard deviation (SD) for each B/P value was calculated using the propagation of errors approach as described previously.

Caco-2 cell monolayers = details: cited from earlier work; for Literature ER: Caco-2, ref [33], [35] of Additional file 1; for Literature Papp: Caco-2 A-B, ref [33]–[35] of Additional file 1
human liver microsomes [4] = test: in vitro
How it was run: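 Compound depletion in human liver microsomes was followed by LC–MS at 2–60 min, with cofactor-free controls. First-order depletion rate constants gave in vitro CLint (µL/min/mg protein), corrected to unbound CLint using measured microsomal fu.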

human plasma = test: Plasma protein binding via ultracentrifugation (UC); format: in vitro ADME; details: ultracentrifugation, neat plasma
How it was run: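 Pooled human plasma (3–4 donors) spiked and ultracentrifuged; protein-free supernate gave Cunbound, parallel tubes kept at 37 °C gave Ctotal and stability (start vs end). Samples matrix-matched 1:1 with opposite blank and quantified against a common calibration curve; fu SD by error propagation.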

human liver microsomes [5] = test: Binding to human liver microsomes via ultracentrifugation; format: in vitro ADME; details: 0.4 mg/mL protein
How it was run: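 Unbound fraction by ultracentrifugation: Cunbound measured in protein-free supernate, Ctotal from spiked tubes held at 37 °C, sampled at start and end to check degradation. Matrix was 0.4 mg/mL human liver microsomal protein, 0.1 M phosphate pH 7.4; matrix-matched analysis against one calibration curve.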

[6] = matrix: human plasma, corrected for fu

fraction unbound at 6 h [1]: < 0.0007 | fraction unbound at 24 h [1]: 0.0007 ± 0.00017 | fraction unbound at […], 1000 ng/mL ([2]; DMEM with 10% FCS): 0.038 ± 0.001 | blood plasma ratio at 1000 ng/mL [3]: 1.3 ± 0.04
SMILES: COc1cc(C)c2c(Oc3cccc(C(F)(F)F)c3)c(OC)cc(NC(C)CCCN)c2n1 (stereo not drawn) [Tafenoquine]

SMILES: CCNCc1cc(Nc2ccnc3cc(Cl)ccc23)ccc1O [Desethylamodiaquine]
blood plasma ratio at 1000 ng/mL [3]: 3.26 ± 0.35

SMILES: C[C@H]1[C@H](OC(=O)CCC(=O)O)O[C@@H]2O[C@@]3(C)CC[C@H]4[C@H](C)CC[C@@H]1[C@@]24OO3 [Artesunate]
fraction unbound at […], 1000 ng/mL ([2]; DMEM with 10% FCS): 0.72 ± 0.026 | Literature ER (Caco-2 cell monolayers): 1.2

Unbound CLint (human liver microsomes [4]; human, 1 µM, pH 7.4): < 140^c µL/min/mg
SMILES: OC(c1cc(C(F)(F)F)nc2c(C(F)(F)F)cccc12)C1CCCCN1 (stereo not drawn) [Mefloquine]
Literature ER (Caco-2 cell monolayers): 0.7 | Literature Papp (Caco-2 cell monolayers): 9.9 ± 0.7 10-6 cm/sec | A–B Papp (Caco-2 cell monolayers; [6]): 180 ± 20 10^−6 cm/s | B–A Papp (Caco-2 cell monolayers; [6]): 150 ± 10 10^−6 cm/s

SMILES: CCc1nc(N)nc(N)c1-c1ccc(Cl)cc1 [Pyrimethamine]
fraction unbound at 6 h [1]: 0.095 ± 0.001 | fraction unbound at […], 1000 ng/mL ([2]; DMEM with 10% FCS): 0.48 ± 0.034

SMILES: CCN(CC)CCCNc1ccnc2cc(Cl)ccc12.Cl.Cl [AQ-13]
Fraction unbound, human plasma (human plasma): 0.43 ± 0.022 | Fraction unbound, HLM (human liver microsomes [5]): 0.66 ± 0.048 | B/P (whole blood to plasma partitioning ratio) ([3]; human whole blood): 3.15 ± 0.20 | Unbound CLint (human liver microsomes [4]): < 10.6^c µL/min/mg | HLM CLint (human liver microsomes [4]; human, microsomes): < 7^b µL/min/mg

fraction unbound at […], 1000 ng/mL [2]: 0.78 ± 0.025
SMILES: COc1cc(NC(C)CCCN)c2ncccc2c1 (stereo not drawn) [Primaquine]

SMILES: Cc1nc(Nc2ncc(N3CCN(C)[C@H](C)C3)c(Nc3cc(C)n(C)n3)n2)cc(C2CC2)c1F [MMV253]
fraction unbound at 24 h [1]: 0.017 ± 0.0002 | blood plasma ratio at 1000 ng/mL [3]: 1 ± 0.05

SMILES: C[C@H]1[C@H](N2CCS(=O)(=O)CC2)O[C@@H]2O[C@@]3(C)CC[C@H]4[C@H](C)CC[C@@H]1[C@@]24OO3 [Artemisone]
Literature ER (Caco-2 cell monolayers): 0.8 | Literature Papp (Caco-2 cell monolayers): 59.6 ± 4.2 10-6 cm/sec

SMILES: CC1(C)N=C(N)N=C(N)N1c1ccc(Cl)cc1 [Cycloguanil]
fraction unbound at […], 1000 ng/mL ([2]; DMEM with 10% FCS): 0.94 ± 0.064

SMILES: CC1(C)c2nc(-c3ccc(F)cc3)c(Nc3ccc(F)cc3)n2CCN1C(=O)CN [KAF156]
fraction unbound at […], 1000 ng/mL ([2]; DMEM with 10% FCS): 0.477 ± 0.032

SMILES: COc1ncnc(NS(=O)(=O)c2ccc(N)cc2)c1OC [Sulfadoxine]
fraction unbound at 6 h [1]: 0.025 | fraction unbound at […], 1000 ng/mL ([2]; DMEM with 10% FCS): 0.86 ± 0.044

SMILES: CC(C)(N)CNC(=O)C[C@H]1CC[C@]2(CC1)OO[C@]1(O2)C2CC3CC(C2)CC1C3 [OZ277, Arterolane]
fraction unbound at 6 h [1]: 0.056 | Unbound CLint (human liver microsomes [4]; human, 1 µM, pH 7.4): < 159 µL/min/mg

Reference: article PMC6941357, “An in vitro toolbox to accelerate anti-malarial drug discovery and development” (Malaria Journal, 2020)
